Test results published in patent US9890119B2, “Indole and azaindole derivative having AMPK-activating activity” (SHIONOGI & CO., LTD., priority 2013, dated 2018).

Experiments:
Human AMPK α2β2γ1 = biological target: T1, Human AMPK α2β2γ1 (Homo sapiens, UniProt O43741+P54646); assay: Test Example 2: evaluation of activators of AMP-activated protein kinase (mobility-shift assay, FL-Peptide 7); assay type: biochemical; conditions: human AMPK α2β2γ1 phosphorylated with CaMKK2; for EC150 (compound concentration showing 150% relative to the control (100%)): 25° C., 2 hours, 1% DMSO; for Emax: control = 100%, read-out: Emax (maximum rate of increase in activity within the measurement range)
T1 construct: The full length cDNAs of human AMPK β2 (NM_005399.3) and human AMPK α2 (NM_006252.3) were inserted; the full length cDNA of human AMPK γ1 (NM_002733.3) had been inserted into pET28b(+); 6xHis (N); made in house; host or cells: Escherichia coli BL21 CodonPlus (DE3)-RIL
Method: The full length cDNAs of human AMPK β2 (NM_005399.3) and human AMPK α2 (NM_006252.3) were inserted into the MCS1 and MCS2 of the pETDuet-1 vector to prepare a human AMPK β2 and human AMPK α2 (6× His tag at the 5′ terminus) expressing plasmid. The plasmid was contransfected with an expression plasmid, in which the full length cDNA of human AMPK γ1 (NM_002733.3) had been inserted into pET28b(+), into BL21 CodonPlus (DE3)-RIL to obtain an expression strain. The expression strain was cultured in TB medium, followed by induction with 0.5 mM IPTG, and cultured at 25° C. for 3 hours and then harvested. After ultrasonication, supernatant was collected and applied to Histrap FF column (GE) and RESOUECE Q column (GE) to prepare 12.5 mg of purified sample containing three types of subunit from 1.8 L of broth.
An expression vector, in which the full length cDNA of human CAMKK β (NM_172226.1) had been inserted into pGEX-6P-3, was transfected into BL21 Star (DE3). The expression strain was cultured in TB medium, followed by induction with 0.5 mM IPTG, and cultured at 25° C. for 3 hours and then harvested. After ultrasonication, supernatant was collected and applied to GSTrap FF column (GE) to prepare 14 mg of GST-fused CAMKK […] from 720 ml of broth.
Thus, phosphorylation treatment was carried out as pretreatment.
Human AMPK α2β2γ1 in an amount to give a conversion rate of approximately 10% by reaction for 2 hours, and CaMKK2 in an amount capable of sufficiently imparting activity to AMPK for one hour were mixed in a buffer solution consisting of a 50 mM HEPES-NaOH buffer solution (pH 7.0), 100 mM NaCl, 5 mM magnesium chloride, 0.1% bovine serum albumin, 0.2 mM sodium orthovanadate(V), 1 mM ethylene glycol-bis(2-aminoethyl ether)-N,N,N′,N′-tetraacetic acid (EGTA), 5 mM disodium β-glycerophosphate, 1 mM dithiothreitol and 0.2 mM ATP, and the obtained liquid was left to stand at 25° C. for 1 to 1.5 hours to sufficiently phosphorylate AMPK.
After that, to the enzyme liquid, which had been subjected to phosphorylation treatment, a compound dissolved in DMSO was added so as to have a 1% DMSO concentration. The obtained liquid was left to stand for 10 minutes.
To the liquid, a substrate solution consisting of a 50 mM HEPES-NaOH buffer solution (pH 7.0), 100 mM NaCl, 10 mM magnesium chloride, 0.1% bovine serum albumin, 0.2 mM sodium orthovanadate(V), 1 mM ethylene glycol-bis(2-aminoethyl ether)-N,N,N′,N′-tetraacetic acid (EGTA), 5 mM disodium β-glycerophosphate, 2 mM dithiothreitol, 0.4 mM ATP and 3 μM FL-Peptide 7 (manufactured by Caliper Life Sciences, Inc.) was added in equal amount (10 μl in total). The obtained liquid was allowed to react at 25° C. for 2 hours, and 10 μl of 20 mM EDTA was then added thereto to stop the reaction.
To detect phosphorylated fluorescent substrates, the reaction liquid was applied to a measuring device, LabChip EZ Reader II manufactured by Caliper Life Science, Inc., for detecting fluorescence by using differences in mobility due to differences in charge. The setting conditions for the device were pressure, −1.5 PSI; upstream voltage, −2250 V; downstream voltage, −400 V; post sample buffer sip time, 40 seconds; final delay, 120 seconds; and peak order, Product First.
A conversion rate was calculated from the peak heights of the resulting substrate and product. The conversion rate when not containing a compound was used as a control, and a concentration dependent curve was made by plotting the rate of increase in activity to the control at each concentration of a compound. The compound concentration showing 150% relative to the control (100%) was used as the EC 150 value, and the maximum rate of increase in activity within the measurement range was used as Emax.

T1 sequence (P54646 whole entry): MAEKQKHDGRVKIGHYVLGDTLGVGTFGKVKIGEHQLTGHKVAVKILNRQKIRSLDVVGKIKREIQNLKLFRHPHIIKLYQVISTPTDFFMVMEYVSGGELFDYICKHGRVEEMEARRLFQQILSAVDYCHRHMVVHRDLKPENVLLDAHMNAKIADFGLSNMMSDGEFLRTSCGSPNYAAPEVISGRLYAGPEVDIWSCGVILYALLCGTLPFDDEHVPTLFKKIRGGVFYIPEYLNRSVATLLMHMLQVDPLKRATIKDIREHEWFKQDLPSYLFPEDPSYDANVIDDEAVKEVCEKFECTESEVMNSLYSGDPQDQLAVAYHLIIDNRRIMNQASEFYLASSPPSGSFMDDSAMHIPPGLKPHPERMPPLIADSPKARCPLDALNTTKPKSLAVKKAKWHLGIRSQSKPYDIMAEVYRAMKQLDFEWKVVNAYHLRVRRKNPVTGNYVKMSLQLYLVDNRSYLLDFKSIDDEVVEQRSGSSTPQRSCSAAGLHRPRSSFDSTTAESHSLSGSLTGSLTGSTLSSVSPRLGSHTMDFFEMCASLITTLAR
T1 sequence (O43741 whole entry): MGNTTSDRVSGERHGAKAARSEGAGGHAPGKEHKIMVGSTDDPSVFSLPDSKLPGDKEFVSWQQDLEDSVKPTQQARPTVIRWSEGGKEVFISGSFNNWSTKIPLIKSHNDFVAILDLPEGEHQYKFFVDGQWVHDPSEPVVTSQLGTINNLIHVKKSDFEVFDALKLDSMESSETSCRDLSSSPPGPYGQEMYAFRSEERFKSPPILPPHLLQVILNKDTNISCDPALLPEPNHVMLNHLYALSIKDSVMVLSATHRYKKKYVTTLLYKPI
T1 sequence (P54619 whole entry partner): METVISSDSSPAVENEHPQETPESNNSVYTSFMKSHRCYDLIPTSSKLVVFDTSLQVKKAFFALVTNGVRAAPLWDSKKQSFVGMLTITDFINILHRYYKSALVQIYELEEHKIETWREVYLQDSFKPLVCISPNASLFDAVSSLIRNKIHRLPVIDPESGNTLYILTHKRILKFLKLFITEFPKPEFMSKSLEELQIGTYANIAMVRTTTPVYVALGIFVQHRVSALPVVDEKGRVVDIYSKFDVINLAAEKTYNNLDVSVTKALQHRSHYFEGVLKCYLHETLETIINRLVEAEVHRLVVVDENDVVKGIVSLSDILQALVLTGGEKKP

Compound: Cc1ccc(Oc2[nH]c3cc(Cl)c(-c4ccc(N5CCOCC5)cc4)cc3c2C#N)cc1C(=O)O [Compound I-1-6]
- EC150 (compound concentration showing 150% relative to the control (100%)) (Human AMPK α2β2γ1): 76 nM
- Emax (Human AMPK α2β2γ1): 618%

Compound: CC(=O)NC/C=C/c1ccc(-c2cc3c(C#N)c(O[C@@H]4CO[C@H]5[C@@H]4OC[C@H]5O)[nH]c3cc2Cl)cc1 [Compound I-2-9]
- EC150 (compound concentration showing 150% relative to the control (100%)) (Human AMPK α2β2γ1): 34 nM
- Emax (Human AMPK α2β2γ1): 503%

Compound: O[C@@H]1CO[C@H]2[C@@H]1OC[C@H]2Oc1cc2nc(-c3c(F)cc(N4CCOCC4)cc3F)c(F)cc2[nH]1 [Compound I-3-24]
- EC150 (compound concentration showing 150% relative to the control (100%)) (Human AMPK α2β2γ1): 8.8 nM
- Emax (Human AMPK α2β2γ1): 729%

Compound: Cc1ccc(Oc2nc3nc(-c4ccc(N5CCOCC5)cc4)c(Cl)cc3[nH]2)cc1C(=O)O [A−1, reference compound]
- EC150 (compound concentration showing 150% relative to the control (100%)) (Human AMPK α2β2γ1): 130 nM
- Emax (Human AMPK α2β2γ1): 394%

Compound: CS(=O)(=O)NC1CC=C(c2ccc(-c3nc4cc(O[C@@H]5CO[C@H]6[C@@H]5OC[C@H]6O)[nH]c4cc3Cl)cc2)CC1 (stereo partly shown) [Compound I-3-47]
- EC150 (compound concentration showing 150% relative to the control (100%)) (Human AMPK α2β2γ1): 0.76 nM
- Emax (Human AMPK α2β2γ1): 727%

Compound: N#Cc1c(O[C@@H]2CO[C@H]3[C@@H]2OC[C@H]3O)[nH]c2ccc(-c3c(F)cc(C4=CCOCC4)cc3F)nc12 [Compound I-3-45]
- EC150 (compound concentration showing 150% relative to the control (100%)) (Human AMPK α2β2γ1): 26 nM
- Emax (Human AMPK α2β2γ1): 694%

Compound: CC(=O)NC1CC=C(c2ccc(-c3nc4cc(O[C@@H]5CO[C@H]6[C@@H]5OC[C@H]6O)[nH]c4cc3Cl)cc2)CC1 (stereo partly shown) [Compound I-3-46]
- EC150 (compound concentration showing 150% relative to the control (100%)) (Human AMPK α2β2γ1): 0.48 nM
- Emax (Human AMPK α2β2γ1): 750%

Compound: Cc1ccc(Oc2cc3nc(-c4ccc(N5CCOCC5)cc4)c(Cl)cc3[nH]2)cc1C(=O)O [Compound I-3-50]
- EC150 (compound concentration showing 150% relative to the control (100%)) (Human AMPK α2β2γ1): 63 nM
- Emax (Human AMPK α2β2γ1): 435%

Compound: CC(C)(CO)C(=O)N1CCC(Oc2cc3nc(-c4ccc(C5=CCC(C(=O)O)CC5)cc4)c(Cl)cc3[nH]2)CC1 (stereo not shown) [Compound I-3-38]
- Emax (Human AMPK α2β2γ1): 560%

Compound: O[C@@H]1CO[C@H]2[C@@H]1OC[C@H]2Oc1cc2nc(-c3ccc(-c4ccccc4)cc3)c(Cl)cc2[nH]1 [Compound I-3-18]
- EC150 (compound concentration showing 150% relative to the control (100%)) (Human AMPK α2β2γ1): 4.1 nM
- Emax (Human AMPK α2β2γ1): 489%

Compound: Clc1cc2[nH]c(O[C@@H]3CO[C@@H]4CCO[C@@H]43)cc2nc1-c1ccc(N2CCOCC2)cc1 [Compound I-3-37]
- phototoxicity test (Phototoxicity test): negative

Compound: N#Cc1cc2[nH]c(O[C@@H]3CO[C@H]4[C@@H]3OC[C@H]4O)c(C#N)c2cc1-c1ccc(N2CCOCC2)cc1 [Compound I-2-17]
- EC150 (compound concentration showing 150% relative to the control (100%)) (Human AMPK α2β2γ1): 98 nM
- Emax (Human AMPK α2β2γ1): 587%

Compound: O[C@@H]1CO[C@H]2[C@@H]1OC[C@H]2Oc1cc2nc(-c3c(F)cc(C4=CCOCC4)cc3F)ccc2[nH]1 [Compound I-3-32]
- EC150 (compound concentration showing 150% relative to the control (100%)) (Human AMPK α2β2γ1): 2.6 nM
- Emax (Human AMPK α2β2γ1): 661%

Compound: CC(C)(CO)C(=O)N1CCC(Oc2cc3nc(-c4ccc(N5CCOCC5)cc4)c(Cl)cc3[nH]2)CC1 [Compound I-3-28]
- EC150 (compound concentration showing 150% relative to the control (100%)) (Human AMPK α2β2γ1): 54 nM
- Emax (Human AMPK α2β2γ1): 510%

Compound: O=C(O)C1CC=C(c2ccc(-c3nc4cc(O[C@@H]5CO[C@H]6[C@@H]5OC[C@H]6O)[nH]c4cc3Cl)cc2)CC1 (stereo partly shown) [Compound I-3-21]
- EC150 (compound concentration showing 150% relative to the control (100%)) (Human AMPK α2β2γ1): 0.21 nM
- Emax (Human AMPK α2β2γ1): 787%

Compound: N#Cc1c(O[C@@H]2CO[C@H]3[C@@H]2OC[C@H]3O)[nH]c2cc(Cl)c(-c3ccc(C4=CCC(C(=O)O)CC4)cc3)cc12 (stereo partly shown) [Compound I-1-8]
- EC150 (compound concentration showing 150% relative to the control (100%)) (Human AMPK α2β2γ1): 39 nM
- Emax (Human AMPK α2β2γ1): 580%

Compound: N#Cc1c(O[C@@H]2CO[C@H]3[C@@H]2OC[C@H]3O)[nH]c2cc(Cl)c(-c3ccc(C4=CCN(C(=O)CO)CC4)cc3)cc12 [Compound I-1-9]
- EC150 (compound concentration showing 150% relative to the control (100%)) (Human AMPK α2β2γ1): 20 nM
- Emax (Human AMPK α2β2γ1): 559%

Compound: CC(=O)NC(C)(C)c1ccc(Oc2cc3nc(-c4c(F)cc(N5CCOCC5)cc4F)ccc3[nH]2)cc1 [Compound I-3-9]
- EC150 (compound concentration showing 150% relative to the control (100%)) (Human AMPK α2β2γ1): 39 nM
- Emax (Human AMPK α2β2γ1): 446%

Compound: CC(C)(C(=O)O)[C@H]1CC[C@H](Oc2cc3nc(-c4ccc(N5CCOCC5)cc4)c(Cl)cc3[nH]2)CC1 [Compound I-3-22]
- EC150 (compound concentration showing 150% relative to the control (100%)) (Human AMPK α2β2γ1): 120 nM
- Emax (Human AMPK α2β2γ1): 264%

Compound: N#Cc1c(O[C@@H]2CO[C@H]3[C@@H]2OC[C@H]3O)[nH]c2ccc(-c3c(F)cc(N4CC[C@@H](O)C4)cc3F)nc12 [Compound I-3-49]
- EC150 (compound concentration showing 150% relative to the control (100%)) (Human AMPK α2β2γ1): 18 nM
- Emax (Human AMPK α2β2γ1): 848%

Compound: O[C@@H]1CO[C@H]2[C@@H]1OC[C@H]2Oc1cc2nc(-c3ccc(N4CCOCC4)cc3)c(Cl)cc2[nH]1 [Compound I-3-15]
- EC150 (compound concentration showing 150% relative to the control (100%)) (Human AMPK α2β2γ1): 1.9 nM
- Emax (Human AMPK α2β2γ1): 559%
